Assay results reported in paper PMC5515969, “Effects of 31 FDA approved small-molecule kinase inhibitors on isolated rat liver mitochondria” (Archives of Toxicology, 2016).
Like-named read-outs stand apart in the source and are kept apart here. Marks after values point to notes of the source that are not given here.

Key:
[1] = system: isolated rat liver mitochondria; experiment: Mitochondrial oxygen consumption (glutamate/malate or succinate driven, state 4 and state 3); type: biochemical; conditions: for Glutamate/malate driven respiration State 3 / Glutamate/malate driven respiration State 4 / Succinate-driven respiration State 3 / Succinate-driven respiration State 4: oxygen consumption, DMSO-treated = 1; as to State 3 respiration driven by succinate at 10XCmax: key: 0 indicates that the drug had no effects (negative); as to State 3 respiration driven by succinate at 1XCmax: key: 0 indicates that the drug had no effects (negative)
Method in brief: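 Oxygen uptake on glutamate/malate or on succinate defined state 4; ADP added 3 min later gave state 3. Mitochondria isolated from rat liver by differential centrifugation, adjusted to 1 mg/ml and pretreated 5 min with inhibitor (0.1% DMSO final). Values relative to DMSO control, set to 1.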

[2] = system: RCC I; experiment: RCC I activity in submitochondrial particles; type: biochemical, rat; design: key to RCC I at 10XCmax / RCC I at 100XCmax / RCC I at 50XCmax / RCC I at 30XCmax / RCC I at 20XCmax: activity relative to DMSO-treated controls (control set as 1 = 100%)
Method in brief: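 First, submitochondrial particles (1 mg/ml) are incubated with inhibitor for 15 min. Next, complex activities are followed spectrophotometrically, with RCC I taken as the difference between buffers lacking and containing rotenone. Finally, activities are expressed relative to DMSO controls set at 1.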

[3] = target: T1, RCC II (Rattus norvegicus, UniProt P21913+Q641Z9+Q6PCT8+Q920L2); experiment: RCC II activity in submitochondrial particles; type: biochemical; design: key: activity relative to DMSO-treated controls (control set as 1 = 100%); conditions: relative to DMSO treated samples
T1 construct: Submitochondrial particles were prepared by subjecting the intact mitochondria to three successive freeze–thaw cycles; from tissue; host or cells: rat liver mitochondria, used as submitochondrial particles
T1 sequence (Q920L2 35-656): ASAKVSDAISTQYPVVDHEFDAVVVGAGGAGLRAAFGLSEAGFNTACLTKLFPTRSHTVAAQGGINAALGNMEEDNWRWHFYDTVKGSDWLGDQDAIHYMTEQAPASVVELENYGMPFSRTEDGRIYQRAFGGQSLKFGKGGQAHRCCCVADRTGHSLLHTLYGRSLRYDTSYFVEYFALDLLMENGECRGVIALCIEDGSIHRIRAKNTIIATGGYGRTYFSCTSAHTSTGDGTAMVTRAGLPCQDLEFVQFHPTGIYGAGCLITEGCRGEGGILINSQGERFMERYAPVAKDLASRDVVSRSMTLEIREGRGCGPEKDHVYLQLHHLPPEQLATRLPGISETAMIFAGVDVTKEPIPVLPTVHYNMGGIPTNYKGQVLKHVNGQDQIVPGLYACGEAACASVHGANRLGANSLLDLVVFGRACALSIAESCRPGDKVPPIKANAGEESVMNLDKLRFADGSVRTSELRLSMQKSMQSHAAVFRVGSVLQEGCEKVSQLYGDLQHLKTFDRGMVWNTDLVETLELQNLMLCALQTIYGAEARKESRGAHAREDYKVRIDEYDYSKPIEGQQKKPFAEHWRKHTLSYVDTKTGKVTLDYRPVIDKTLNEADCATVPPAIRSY
T1 sequence (P21913 31-282): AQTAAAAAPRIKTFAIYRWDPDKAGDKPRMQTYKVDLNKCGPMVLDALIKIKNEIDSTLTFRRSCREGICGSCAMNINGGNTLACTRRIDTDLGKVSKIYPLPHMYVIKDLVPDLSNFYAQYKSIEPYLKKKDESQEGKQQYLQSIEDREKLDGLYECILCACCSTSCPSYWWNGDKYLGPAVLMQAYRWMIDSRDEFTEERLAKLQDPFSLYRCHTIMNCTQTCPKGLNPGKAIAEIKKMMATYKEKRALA
T1 sequence (Q641Z9 1-169): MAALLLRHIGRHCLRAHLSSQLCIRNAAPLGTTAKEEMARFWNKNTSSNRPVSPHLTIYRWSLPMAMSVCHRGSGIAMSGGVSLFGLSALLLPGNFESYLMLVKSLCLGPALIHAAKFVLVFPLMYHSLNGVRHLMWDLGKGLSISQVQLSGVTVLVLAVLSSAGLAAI
T1 sequence (Q6PCT8 57-159): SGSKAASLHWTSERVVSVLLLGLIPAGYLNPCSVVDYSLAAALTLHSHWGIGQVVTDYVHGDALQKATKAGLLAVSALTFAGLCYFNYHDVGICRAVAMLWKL
Method in brief: (§1)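 Abs 340 nm (I/V) or 600 nm (II), 1-min reads × 6 min; 550 nm (III, IV), 10-s reads × 2 min. RCC I = rotenone-free minus rotenone rate. DMSO control = 1.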

[4] = system: RCC III; experiment: RCC III activity in submitochondrial particles; type: biochemical, rat; conditions: 10-fold Cmax; 15 min; DMSO-treated = 100
Method in brief: as §1

[5] = system: RCC IV; experiment: RCC IV activity in submitochondrial particles; type: biochemical, rat; conditions: 10-fold Cmax; 15 min; DMSO-treated = 100
Method in brief: as §1

[6] = system: isolated rat liver mitochondria; experiment: Mitochondrial inner membrane potential (MMP), Rhodamine 123; type: biochemical
Description: Fig. 3 KI effects on mitochondrial inner membrane potential (MMP). […] In a, c, data are means and standard derivations from three separate experiments. *p < 0.05 as compared to DMSO-treated samples at the end of experiments. In b, data are means of two independent experiments

[7] = system: isolated rat liver mitochondria; conditions: positive control alamethicin treated samples
[8] = cited from earlier work
[9] = system: isolated rat liver mitochondria; experiment: Mitochondrial ROS production (CM-H2DCFDA)
[10] = 1XCmax, DMSO treated samples set as 1
[11] = 2.5XCmax, DMSO treated samples set as 1
[12] = 5XCmax, DMSO treated samples set as 1
[13] = 10XCmax, DMSO treated samples set as 1

Question: For CNC(=O)c1cc(Oc2ccc(NC(=O)Nc3ccc(Cl)c(C(F)(F)F)c3)c(F)c2)ccn1 [Regorafenib], which “Glutamate/malate driven respiration State 3” value ([1]; 1-fold Cmax) is on record?
Answer: Its value is 2.33 ± 0.06.

Question: What about the “Glutamate/malate driven respiration State 4” value ([1]; 1-fold Cmax) of the same compound?
Answer: The value was 7.45 ± 0.17.

Question: And the “Succinate-driven respiration State 3” value ([1]; 1-fold Cmax)?
Answer: Its value is 1.05 ± 0.07.

Question: And the “Succinate-driven respiration State 4” value ([1]; 1-fold Cmax)?
Answer: The value was 2.95 ± 0.08.

Question: What about the “State 3 respiration driven by glutamate/malate at 1XCmax” value [1, 10] of the same compound?
Answer: Its value is 2.33±0.06.

Question: What about the “State 3 respiration driven by succinate at 1XCmax” value [1, 10] of the same compound?
Answer: The value was 0.

Question: What about the “State 4 respiration driven by glutamate/malate at 1XCmax” value [1, 10] of the same compound?
Answer: The value was 7.45±0.17.

Question: And the “State 4 respiration driven by succinate at 1XCmax” value [1, 10]?
Answer: The value was 2.95±0.08.

Question: What about the “Glutamate/malate driven respiration State 3” value ([1]; 2.5-fold Cmax) of the same compound?
Answer: Its value is 2.51 ± 0.04.

Question: What about the “Glutamate/malate driven respiration State 4” value ([1]; 2.5-fold Cmax) of the same compound?
Answer: The value was 5.51 ± 0.35.

Question: And the “Succinate-driven respiration State 3” value ([1]; 2.5-fold Cmax)?
Answer: Its value is 0.84 ± 0.04.

Question: What about the “Succinate-driven respiration State 4” value ([1]; 2.5-fold Cmax) of the same compound?
Answer: The value was 3.59 ± 0.14.

Question: And the “State 3 respiration driven by glutamate/malate at 2.5XCmax” value [1, 11]?
Answer: The value was 2.51±0.04.

Question: And the “State 3 respiration driven by succinate at 2.5XCmax” value [1, 11]?
Answer: Its value is 0.

Question: And the “State 4 respiration driven by glutamate/malate at 2.5XCmax” value [1, 11]?
Answer: Its value is 5.51±0.35.

Question: What about the “State 4 respiration driven by succinate at 2.5XCmax” value [1, 11] of the same compound?
Answer: Its value is 3.59±0.14.

Question: And the “Glutamate/malate driven respiration State 3” value ([1]; 5-fold Cmax)?
Answer: Its value is 1.33 ± 0.04.

Question: And the “Glutamate/malate driven respiration State 4” value ([1]; 5-fold Cmax)?
Answer: The value was 3.82 ± 0.72.

Question: And the “Succinate-driven respiration State 3” value ([1]; 5-fold Cmax)?
Answer: Its value is 0.83 ± 0.03.

Question: What about the “Succinate-driven respiration State 4” value ([1]; 5-fold Cmax) of the same compound?
Answer: The value was 1.69 ± 0.09.

Question: What about the “State 3 respiration driven by glutamate/malate at 5XCmax” value [1, 12] of the same compound?
Answer: The value was 1.33±0.04.

Question: What about the “State 3 respiration driven by succinate at 5XCmax” value [1, 12] of the same compound?
Answer: The value was 0.

Question: What about the “State 4 respiration driven by glutamate/malate at 5XCmax” value [1, 12] of the same compound?
Answer: Its value is 3.82±0.72.

Question: What about the “State 4 respiration driven by succinate at 5XCmax” value [1, 12] of the same compound?
Answer: The value was 1.69±0.09.

Question: What about the “Glutamate/malate driven respiration State 3” value ([1]; 10-fold Cmax) of the same compound?
Answer: The value was 1.36 ± 0.03.

Question: What about the “Glutamate/malate driven respiration State 4” value ([1]; 10-fold Cmax) of the same compound?
Answer: The value was 3.84 ± 0.34.

Question: And the “Succinate-driven respiration State 3” value ([1]; 10-fold Cmax)?
Answer: Its value is 0.82 ± 0.19.

Question: What about the “Succinate-driven respiration State 4” value ([1]; 10-fold Cmax) of the same compound?
Answer: Its value is 1.78 ± 0.19.

Question: What about the “State 3 respiration driven by glutamate/malate at 10XCmax” value [1, 13] of the same compound?
Answer: Its value is 1.36±0.03.

Question: What about the “State 3 respiration driven by succinate at 10XCmax” value [1, 13] of the same compound?
Answer: Its value is 0.

Question: What about the “State 4 respiration driven by glutamate/malate at 10XCmax” value [1, 13] of the same compound?
Answer: Its value is 3.84±0.34.

Question: What about the “State 4 respiration driven by succinate at 10XCmax” value [1, 13] of the same compound?
Answer: The value was 1.78±0.19.

Question: And the “effect on state 4 respiration” value ([1]; highest tested concentrations)?
Answer: Its value is “significant increases”.

Question: What about the “lowest concentration significantly affecting mitochondrial oxygen consumption” value ([1]; tested at 1 to 100-fold Cmax) of the same compound?
Answer: Its value is “equal to Cmax”.

Question: And the “RCC activity I” value ([2]; 10-fold Cmax, 15 min, DMSO-treated = 100)?
Answer: The value was 99.37 ± 3.35 % of control.

Question: And the “RCC I at 10XCmax” value ([2]; 10XCmax, relative to DMSO treated samples)?
Answer: Its value is 0.

Question: What about the “RCC II at 1.0XCmax” value ([3]; 1.0XCmax) of the same compound?
Answer: Its value is 0.

Question: What about the “RCC II at 2.5XCmax” value ([3]; 2.5XCmax) of the same compound?
Answer: The value was 0.

Question: What about the “RCC II at 5XCmax” value ([3]; 5XCmax) of the same compound?
Answer: The value was 0.

Question: What about the “RCC II at 10XCmax” value ([3]; 10XCmax) of the same compound?
Answer: The value was 83.50±2.91.

Question: What about the “RCC activity III” value [4] of the same compound?
Answer: Its value is 90.31 ± 13.61 % of control.

Question: And the “RCC activity IV” value [5]?
Answer: Its value is 95.37 ± 6.45 % of control.

Question: And the “lowest concentration decreasing MMP” value [6]?
Answer: The value was “onefold”.

Question: What about the “MMP measured by Rhodamine 123 at 1XCmax” value ([6]; 1XCmax, difference in signal between KI and DMSO treated samples at the end of experiments) of the same compound?
Answer: The value was 4244±687*.

Question: What about the “MMP measured by Rhodamine 123 at 2.5XCmax” value ([6]; 2.5XCmax, difference in signal between KI and DMSO treated samples at the end of experiments) of the same compound?
Answer: Its value is 4112±722*.

Question: What about the “MMP measured by Rhodamine 123 at 5XCmax” value ([6]; 5XCmax, difference in signal between KI and DMSO treated samples at the end of experiments) of the same compound?
Answer: Its value is 3961±724*.

Question: What about the “MMP measured by Rhodamine 123 at 10XCmax” value ([6]; 10XCmax, difference in signal between KI and DMSO treated samples at the end of experiments) of the same compound?
Answer: Its value is 3711±588*.

Question: What about the “effect on MMP” value ([6]; up to 100-fold Cmax or highest testable concentration) of the same compound?
Answer: Its value is “decrease in MMP”.

Question: And the “Cytochrome c release 1XCmax” value ([7]; 1XCmax)?
Answer: The value was 10.72±1.87 percentage of the positive control group.

Question: What about the “Cytochrome c release 2.5XCmax” value ([7]; 2.5XCmax) of the same compound?
Answer: Its value is 22.56±1.84 percentage of the positive control group.

Question: What about the “Cytochrome c release 5XCmax” value ([7]; 5XCmax) of the same compound?
Answer: Its value is 10.26±0.36 percentage of the positive control group.

Question: And the “Cytochrome c release 10XCmax” value ([7]; 10XCmax)?
Answer: Its value is 7.42±0.36 percentage of the positive control group.

Question: And the Cmax ([8]; human therapeutic Cmax at FDA recommended dosages, ref product labeling and drug approval packages at the official FDA website)?
Answer: Its Cmax is 8.08 µM.

Question: What about the “Cmax” value ([8]; therapeutic maximal blood concentration, ref product labeling) of the same compound?
Answer: The value was 3900 ng/mL.

Question: And the “ROS measured by CM-H2DCFDA at 1XCmax” value [9, 10]?
Answer: The value was 0.

Question: What about the “ROS measured by CM-H2DCFDA at 2.5XCmax” value [9, 11] of the same compound?
Answer: Its value is 0.

Question: What about the “ROS measured by CM-H2DCFDA at 5XCmax” value [9, 12] of the same compound?
Answer: Its value is 0.

Question: What about the “ROS measured by CM-H2DCFDA at 10XCmax” value [9, 13] of the same compound?
Answer: The value was 0.

Question: What about the “effect on ROS production” value ([9]; highest tested concentrations) of the same compound?
Answer: The value was “neither of them affected ROS production”.
